From the supplement of paper PMC10307832

Legend:
Assay in all cases: relative viability (nuclei count vs DMSO), 5 days (fraction); higher = more cells survive
[1] = tested on: BEN
Procedure, shortened: (§1)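 Relative viability is defined as nuclei in treated wells over nuclei in vehicle wells. Duplicate plates were run and medians reported. Lung cancer cell lines in 1536-well plates were dosed by pin tool one day after seeding, with one drug or with a fixed anchor-drug dose plus five library-drug doses (not always all listed) in √10 steps, and nuclei were counted after 5 days.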

[2] = tested on: EKVX
Procedure, shortened: as §1

[3] = tested on: HARA
Procedure, shortened: as §1

[4] = tested on: HCC-366
Procedure, shortened: as §1

[5] = tested on: HCC-827
Procedure, shortened: as §1

[6] = tested on: LC-2-ad
Procedure, shortened: as §1

[7] = tested on: LOU-NH91
Procedure, shortened: as §1

[8] = tested on: NCI-H1355
Procedure, shortened: as §1

[9] = tested on: NCI-H1437
Procedure, shortened: as §1

[10] = tested on: NCI-H1734
Procedure, shortened: as §1

[11] = tested on: NCI-H1792
Procedure, shortened: as §1

[12] = tested on: NCI-H2009
Procedure, shortened: as §1

[13] = tested on: NCI-H2087
Procedure, shortened: as §1

[14] = tested on: NCI-H2170
Procedure, shortened: as §1

[15] = tested on: NCI-H2228
Procedure, shortened: as §1

[16] = tested on: NCI-H2405
Procedure, shortened: as §1

[17] = tested on: NCI-H596
Procedure, shortened: as §1

[18] = tested on: NCI-H647
Procedure, shortened: as §1

[19] = tested on: NCI-H661
Procedure, shortened: as §1

[20] = tested on: SK-LU-1
Procedure, shortened: as §1

[21] = tested on: SK-MES-1
Procedure, shortened: as §1

Compound `O=C(O)c1ccc(-c2c[nH]c3ncc(-c4ccccc4)cc23)cc1C1CCCC1` + C[C@@H](Oc1cc(-c2cnn(C3CCNCC3)c2)cnc1N)c1c(Cl)ccc(F)c1Cl [Crizotinib] (partner 1 µM) has a relative viability ([1]; first compound 0.04 µM) of 0.89, a relative viability ([1]; first compound 0.1265 µM) of 0.996 and a relative viability ([1]; first compound 0.4 µM) of 0.885. For the same compound, the relative viability ([1]; first compound 1.265 µM) was 0.774, the relative viability ([2]; first compound 0.04 µM) was 1.13 and the relative viability ([2]; first compound 0.1265 µM) was 0.891. The relative viability ([2]; first compound 0.4 µM) was 0.927, the relative viability ([2]; first compound 1.265 µM) was 0.676 and the relative viability ([3]; first compound 0.04 µM) was 0.985. It also gave a relative viability ([3]; first compound 0.1265 µM) of 1.04, a relative viability ([3]; first compound 0.4 µM) of 1.02 and a relative viability ([3]; first compound 1.265 µM) of 0.763. The relative viability ([4]; first compound 0.04 µM) was 0.502, the relative viability ([4]; first compound 0.1265 µM) was 0.686 and the relative viability ([4]; first compound 0.4 µM) was 0.619. The relative viability ([4]; first compound 1.265 µM) was 0.696, the relative viability ([5]; first compound 0.04 µM) was 0.88 and the relative viability ([5]; first compound 0.1265 µM) was 0.95. The relative viability ([5]; first compound 0.4 µM) was 0.897, the relative viability ([5]; first compound 1.265 µM) was 0.724 and the relative viability ([6]; first compound 0.04 µM) was 0.496. For the same compound, the relative viability ([6]; first compound 0.1265 µM) was 0.452, the relative viability ([6]; first compound 0.4 µM) was 0.412 and the relative viability ([6]; first compound 1.265 µM) was 0.364. For the same compound, the relative viability ([7]; first compound 0.04 µM) was 0.725, the relative viability ([7]; first compound 0.1265 µM) was 0.771 and the relative viability ([7]; first compound 0.4 µM) was 0.702. The relative viability ([7]; first compound 1.265 µM) was 0.782, the relative viability ([8]; first compound 0.04 µM) was 1.05 and the relative viability ([8]; first compound 0.1265 µM) was 1.14. The relative viability ([8]; first compound 0.4 µM) was 1.04, the relative viability ([8]; first compound 1.265 µM) was 0.752 and the relative viability ([9]; first compound 0.04 µM) was 1.03. It also gave a relative viability ([9]; first compound 0.1265 µM) of 0.959, a relative viability ([9]; first compound 0.4 µM) of 0.874 and a relative viability ([9]; first compound 1.265 µM) of 0.839. It also gave a relative viability ([10]; first compound 0.04 µM) of 0.752, a relative viability ([10]; first compound 0.1265 µM) of 0.705 and a relative viability ([10]; first compound 0.4 µM) of 0.601. The relative viability ([10]; first compound 1.265 µM) was 0.543, the relative viability ([11]; first compound 0.04 µM) was 0.959 and the relative viability ([11]; first compound 0.1265 µM) was 0.994. For the same compound, the relative viability ([11]; first compound 0.4 µM) was 1.03, the relative viability ([11]; first compound 1.265 µM) was 0.891 and the relative viability ([12]; first compound 0.04 µM) was 0.994. For the same compound, the relative viability ([12]; first compound 0.1265 µM) was 1.05, the relative viability ([12]; first compound 0.4 µM) was 0.931 and the relative viability ([12]; first compound 1.265 µM) was 0.666. It also gave a relative viability ([13]; first compound 0.04 µM) of 0.853, a relative viability ([13]; first compound 0.1265 µM) of 0.75 and a relative viability ([13]; first compound 0.4 µM) of 0.833. The relative viability ([13]; first compound 1.265 µM) was 0.723, the relative viability ([14]; first compound 0.04 µM) was 1.12 and the relative viability ([14]; first compound 0.1265 µM) was 1.24. The relative viability ([14]; first compound 0.4 µM) was 1.18, the relative viability ([14]; first compound 1.265 µM) was 0.843 and the relative viability ([15]; first compound 0.04 µM) was 0.62. For the same compound, the relative viability ([15]; first compound 0.1265 µM) was 0.556, the relative viability ([15]; first compound 0.4 µM) was 0.469 and the relative viability ([15]; first compound 1.265 µM) was 0.292. The relative viability ([16]; first compound 0.04 µM) was 0.862, the relative viability ([16]; first compound 0.1265 µM) was 0.94 and the relative viability ([16]; first compound 0.4 µM) was 0.841. It also gave a relative viability ([16]; first compound 1.265 µM) of 0.715, a relative viability ([17]; first compound 0.04 µM) of 1 and a relative viability ([17]; first compound 0.1265 µM) of 1.09. It also gave a relative viability ([17]; first compound 0.4 µM) of 0.909, a relative viability ([17]; first compound 1.265 µM) of 1 and a relative viability ([18]; first compound 0.04 µM) of 1.01. It also gave a relative viability ([18]; first compound 0.1265 µM) of 1.08, a relative viability ([18]; first compound 0.4 µM) of 0.987 and a relative viability ([18]; first compound 1.265 µM) of 0.77. For the same compound, the relative viability ([19]; first compound 0.1265 µM) was 0.963, the relative viability ([19]; first compound 0.4 µM) was 0.967 and the relative viability ([19]; first compound 1.265 µM) was 1.03. For the same compound, the relative viability ([20]; first compound 0.04 µM) was 0.927, the relative viability ([20]; first compound 0.1265 µM) was 0.901 and the relative viability ([20]; first compound 0.4 µM) was 0.719. For the same compound, the relative viability ([20]; first compound 1.265 µM) was 0.682, the relative viability ([21]; first compound 0.04 µM) was 0.942 and the relative viability ([21]; first compound 0.1265 µM) was 1.01. For the same compound, the relative viability ([21]; first compound 0.4 µM) was 0.953 and the relative viability ([21]; first compound 1.265 µM) was 0.774.
